Data published in PMC11134331, “Cell-active small molecule inhibitors validate the SNM1A DNA repair nuclease as a cancer target” (Chemical Science, 2024).

Target: T1, SNM1A (Homo sapiens, UniProt Q6PJP8)
T1 sequence (Q6PJP8 676-1040): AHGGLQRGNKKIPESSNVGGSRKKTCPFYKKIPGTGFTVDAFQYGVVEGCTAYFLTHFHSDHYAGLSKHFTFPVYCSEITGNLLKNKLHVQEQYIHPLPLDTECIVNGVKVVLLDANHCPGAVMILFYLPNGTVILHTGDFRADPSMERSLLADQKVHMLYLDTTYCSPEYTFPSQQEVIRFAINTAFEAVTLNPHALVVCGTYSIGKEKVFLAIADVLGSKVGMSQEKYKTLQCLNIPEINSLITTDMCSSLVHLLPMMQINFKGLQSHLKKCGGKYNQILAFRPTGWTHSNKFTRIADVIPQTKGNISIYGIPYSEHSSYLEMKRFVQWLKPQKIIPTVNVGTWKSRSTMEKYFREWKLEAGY
Assay: real-time fluorescence-based nuclease assay, SNM1A
Format: biochemical
Parameters: DNA encoding for the MBL and β-CASP domains of SNM1A (aa 676–1040) was cloned into the baculovirus transfer vector pFB-LIC-Bse; inferred from vector pFB-LIC-Bse and the IMAC purification; made in house; host or cells: Sf9 insect cells (baculovirus)
Settings: for IC50: read-out: SNM1A IC50
Description: In brief, the fluorescence-based nuclease assay utilises a chemically modified 20-nucleotide ssDNA substrate with a fluorescein isothiocyanate (FITC) derived 5′-group and an internal black-hole-quencher-1 (BHQ-1), located eight nucleotides distal to the fluorescein group. In the intact substrate the BHQ-1 suppresses fluorescence, however, exonucleolytic digestion of the substrate from the 5′ end by SNM1A uncouples the BHQ-1 and FITC moieties (see Fig. 1D). Spectra were measured every 140 seconds with an increase in fluorescence indicating enzymatic activity by SNM1A (concentration: 0.1 nM).
Fluorescence-based nuclease digestion SNM1A–C assays were performed as described.[30,45] In the case of SNM1A and SNM1B, a 20-mer oligonucleotide with a 5′ FITC-conjugated-T and an internal BHQ-1 (black hole quencher) conjugated-T, eight nucleotides distal (3′) to the fluor was utilised; whereas for SNM1C a 20-mer oligonucleotide with a 5′ FITC-conjugated-T and a 3′ BHQ-1(black hole quencher) was used to capture all possible endonucleolytic incisions. Reactions (25 μL) were performed in 384 well microplates in nuclease buffer (20 mM HEPES-KOH pH 7.5, 50 mM KCl, 10 mM MgCl2, 0.5 mM TCEP, 0.05% (v/v) Triton-X, 0.1 mg mL^−1 BSA, 5% (v/v) glycerol) with SNM1A/B/C (0.1 nM SNM1A, 0.5 nM SNM1B and 1 nM SNM1C) as indicated. Proteins were incubated for 10 min at RT with the stated compound where applicable, before the reaction was initiated with the addition of 10 nM DNA substrate. […] Fluorescence spectra were measured every 140 s, for 35 min, at 37 °C. The fluorescence intensity of each well was plotted against compound concentration and fitted using a log (inhibitor) response curve using GraphPad Prism software (GraphPad Software, Inc., La Jolla, CA, USA).

[1] = real-time fluorescence-based nuclease assay, resynthesised compounds

Row | Compound | IC50 [1] [µM] | SNM1A IC50 [1] | increase in SNM1A potency compared to K1 (6) (fluorescence-based assay) [fold]
1 | C=CCNc1nc(N[C@@H](CC(C)C)C(=O)OC)c2cc(Cl)ccc2n1 [compound 7] | > 1000 | – | –
2 | C=CCNc1nc(N[C@@H](CC(C)C)C(N)=O)c2cc(Cl)ccc2n1 [compound 8] | > 1000 | – | –
3 | C=CCNc1nc(N[C@H](CO)CC(C)C)c2cc(Cl)ccc2n1 [compound 9] | > 1000 | – | –
4 | C=CCNc1nc(NC(CC(C)C)C(=O)NO)c2cc(Cl)ccc2n1 (stereo not shown) [compound 10] | 33 | – | 3
5 | AZ1353160 [compound 4, reference compound] | – | an IC50 value could not be calculated | –

Continued, in another order:

Row | IC50 [1] [µM] | SNM1A IC50 [1] | Compound | increase in SNM1A potency compared to K1 (6) (fluorescence-based assay) [fold]
6 | 17 | – | C=CCNc1nc(NCC(=O)NO)c2cc(Cl)ccc2n1 [compound 11] | –
7 | 4.1 | – | C=CCNc1nc(NC(CO)C(=O)NO)c2cc(Cl)ccc2n1 (stereo not shown) [compound 14] | –
8 | 42 | – | C[C@H](Nc1nc(N2CCOCC2)nc2ccc(Cl)cc12)C(=O)NO [compound 15] | –
9 | 20 | – | CCCN(C)c1nc(N[C@@H](C)C(=O)NO)c2cc(Cl)ccc2n1 [compound 17] | –
10 | 11 | – | C[C@H](Nc1nc(N(C)C)nc2ccc(Cl)cc12)C(=O)NO [compound 22] | –
11 | 13 | – | C[C@H](Nc1nc(N(C)C)nc2ccc(F)cc12)C(=O)NO [compound 23] | –
12 | 74 | – | COc1ccc2nc(N(C)C)nc(N[C@@H](C)C(=O)NO)c2c1 [compound 24] | –
